{"source": "patent US11584712B2", "about": "“Alkylamine-substituted perthiocarbamates as dual precursors to hydropersulfide and carbonyl sulfide” (The Johns Hopkins University, priority 2020, dated 2023)", "key": {"H9c2 cells": {"tested_on": "H9c2 cells", "assay": "Cytotoxicity study with SYTOX Green nucleic acid stain", "type": "cell-based, rat", "conditions": "24 h exposure, 0-150 μM", "protocol": "H9c2(2-1) embryonic rat heart myoblasts were obtained from the American Type Culture Collection. Cells were grown in Dulbecco's […] (DMEM), supplemented with fetal bovine serum (FBS) 10%, penicillin 100 U/mL and streptomycin 100 μg/mL. They were propagated in T75-flasks, split before reaching 70-80% confluence (usually every day or every second day), and used within 11 passages. Cells were passaged to tissue culture treated 96-well microtiter plates at the specified density in 180 μL volumes and incubated for 24 h.\nCells were seeded at a density of 1×10^4 cells/well. […] Then, 100 μL of media containing 3 μM SYTOX™ Green nucleic acid stain (Invitrogen) was added and the cells were incubated for 2 h before fluorescence readings were obtained at 485Ex/538Em (Step 1). Finally, an additional 100 μL of media containing 3 μM SYTOX™ and 0.2% Triton X-100 was added in order to permeabilize all cells and incubated for 1 h before fluorescence values measured (Step 2). The relative % cells surviving was calculated as a 100% minus the ratio of the fluorescence value of Step 1 over Step 2 (% cells surviving=100%−(FL538 (Step 1)/FL538(Step 2)).\nCells were seeded at a density of 1×10^4 cells/well. […] The relative % cells surviving was calculated as a 100% minus the ratio of the fluorescence value of Step 1 over Step 2 (% cells surviving=100%−(FL538 (Step 1)/FL538(Step 2))."}, "[1]": {"assay": "Kinetics of RSSH release from precursors monitored by HPLC (HPE-IAM trapping)", "type": "physicochemical", "conditions": "precursor 100 μM, HPE-IAM 5 mM, pH 7.4 phosphate buffer with DTPA, 37° C.", "protocol": "(§1) Precursors 7a-d were dissolved in DMSO to afford 10 mM stock solutions. HPE-IAM was dissolved in DMSO to obtain a 100 mM stock solution. […] This solution was pre-incubated for 10 min at 37° C. and then precursor 7a-d (30 μL, 10 mM) were independently added into the mixture. The resulting solution was incubated at 37° C. At different time points, an aliquot of 200 μL was taken and quenched with 200 μL […] solution. These samples were stored at 0° C. until HPLC analysis was performed. The sample (20 μL) was injected into a high-performance liquid chromatography (HPLC) equipped with Phenomenex C-18 reverse phase column (250 mm×4.6 mm, 5 μm). HPLC Method: mobile phase A (H2O) and mobile phase B (ACN), flow rate: 1 mL/min, run time: 20 min, the gradient elution method: 10% to 40% B from 0 to 12 min, 40% to 80% B from 12 to 20 min. The elution was monitored by a UV detector at 275 nm. A calibration curve was generated using RSS-HPE-AM 9 to quantify RSSH generation from 7a-d.\nas §1, with “by a variable UV detector” for “by a UV detector”"}, "[2]": {"assay": "RSSH generation in the presence of N-acetyl cysteine by UPLC-MS", "type": "physicochemical", "conditions": "precursor 100 μM, NAC 500 μM, pH 7.4 ammonium bicarbonate buffer with DTPA, 37° C.", "protocol": "[…] The resulting mixture was incubated at 37° C. An aliquot (200 μL) of reaction mixture was withdrawn at specified time points and quenched with 1% formic acid (200 μL). 3-Amino-benzoic acid (50 μM) was added to each sample as internal standard prior to UPLC-MS analysis. To quantify 2a-d generated from these precursors, a calibration curve for each individual cyclic urea with known concentrations was independently generated.\n[…] The resulting mixture was incubated at 37° C. An aliquot ([…]) of reaction mixture was withdrawn at specified time points and quenched with 1% formic acid (200 μL). 3-amino-benzoic acid (50 μM) was added to each sample as internal standard prior to UPLC-MS analysis. To quantify 2a-d generated from these precursors, the calibration curve of each individual cyclic urea with known concentrations was independently generated."}, "[3]": {"assay": "COS release using membrane inlet mass spectrometry (MIMS)", "type": "physicochemical", "conditions": "precursor 50 μM, NAC 0.25 mM (5 equiv.), pH 7.4 phosphate buffer saline with DTPA, 37° C.", "protocol": "(§2) COS was analyzed using a Hiden HPR-40 MIMS system with a sample cell and membrane probe that have been optimized to detect gases dissolved in aqueous solution as described previously. Cline et al., 2011. A stock solution of N-acetyl-cysteine (25 mM) was prepared in DI water. RSSH precursor stock solutions (5 mM) were prepared in DMSO. These solutions were degassed by purging with nitrogen for 10 min before COS release analysis. Typically, 20 mL phosphate buffer solution (10 mM) was added to the sample cell, degassed and purged with a continuous flow of argon for 15 min. N-acetyl cysteine (200 μL, 25 mM) and RSSH precursor (200 μL, 5 mM) were then injected using a gas tight syringe and ion current at m/z 60 (COS^+) were collected for 2 h (source pressure was approximately 1×10^−7 to 5×10^−7 Torr).\nas §2, with “(COS*)” for “(COS^+)”"}, "[4]": {"assay": "RSSH generation and quantification of cyclic ureas by UPLC-MS with HPE-IAM or NEM trap", "type": "physicochemical", "protocol": "Precursor 1a was dissolved in DMSO to afford a 1 mM stock solution. Similarly, HPE-IAM and N-ethyl maleimide (NEM) were independently dissolved in DMSO to obtain 50 mM stock solutions. To a 20 mL scintillation vial, HPE-IAM or NEM (30 μL, 50 mM) was added in pH 7.4 ammonium bicarbonate buffer (2.94 mL) containing the DTPA (100 μM). The resulting solution was pre-incubated at 37° C. for 10 min. Precursor 1a (30 μL, 1 mM) was then added into the mixture and incubated for 15 min at 37° C. An aliquot of the reaction mixture (500 μL) was withdrawn, 4-hydroxyphenylacetamide (10 μM) was added as internal standard, and analyzed using UPLC-MS as follows: Mobile phase: 0-1 min 90% water+0% ACN+10% formic acid (0.1%); 1-7.5 min gradient up to 10% water+80% ACN+10% formic acid (0.1%); 7.5-8.4 min 10% water+80% ACN+10% formic acid (0.1%); 8.4-8.5 min gradient up to 90% water+0% ACN+10% formic acid (0.1%), 8.5-10 min 90% water+0% ACN+10% formic acid (0.1%). Flow rate=0.3 mL/min. […] These studies were conducted at least in triplicate and representative spectra are presented.\nPrecursors 7a-d (10 μM) were independently incubated with HPE-IAM (500 μM) in pH 7.4 ammonium bicarbonate buffer (50 mM) containing DTPA (100 μM) at 37° C. The reaction mixture (500 μL) was analyzed using UPLC-MS. To quantify 2a-d generated from these precursors, a calibration curve of each individual cyclic urea with known concentrations was independently generated.\nPrecursor 1a was dissolved in DMSO to afford a 1 mM stock solution. Similarly, HPE-IAM was dissolved in DMSO to obtain a 50 mM stock solution. To a 20 mL scintillation vial, HPE-IAM (30 μL, 50 mM) was added in pH 7.4 ammonium bicarbonate buffer (2.94 mL) containing the DTPA (100 μM). The resulting solution was pre-incubated at 37° C. for 10 min. Precursor 1a (30 μL, 1 mM) was then added into the mixture and incubated for 15 min at 37° C. An aliquot of the reaction mixture (500 μL) was withdrawn and analyzed using UPLC-MS as follows: Mobile phase: 0-1 min 90% water+0% ACN+10% formic acid (0.1%); 1-7.5 min gradient up to 10% water+80% ACN+10% formic acid (0.1%); 7.5-8.4 min 10% water+80% ACN+10% formic acid (0.1%); 8.4-8.5 min gradient up to 90% water+0% ACN+10% formic acid (0.1%), 8.5-10 min 90% water+0% ACN+10% formic acid (0.1%). Flow rate=0.3 mL/min. The mass signals for product of RSSH trapping with HPE-IAM were obtained via deconvolution using MassLynx 4.1 software. These studies were conducted at least in triplicate and representative spectra are presented.\nPrecursors 7a-d (10 μM) were independently incubated with HPE-IAM (500 μM) in pH 7.4 ammonium bicarbonate buffer (50 mM) containing DTPA (100 μM) at 37° C. This reaction mixture was analyzed by UPLC-MS as follows: Mobile phase: 0-1 min 90% water+0% ACN+10% formic acid (0.1%); 1-7.5 min gradient up to 10% water+80% ACN+10% formic acid (0.1%); 7.5-8.4 min 10% water+80% ACN+10% formic acid (0.1%); 8.4-8.5 min gradient up to 90% water+0% ACN+10% formic acid (0.1%), 8.5-10 min 90% water+0% ACN+10% formic acid (0.1%). Flow rate=0.3 mL/min. To quantify 2a-d generated from these precursors, a calibration curve of each individual cyclic urea with known concentrations was independently generated."}}, "data": [{"smiles": "CN1CCNC1=O", "note": "[byproduct 2b, 1-methylimidazolidin-2-one]", "values": [{"measurement": "cytotoxicity toward H9c2 cells", "setting": "H9c2 cells", "result": "no toxicity"}]}, {"smiles": "COC(=O)C(NC(C)=O)C(C)(C)SSC(=O)N(C)CCCN", "note": "(stereo not shown) [Precursor 7d, 3-(((3-acetamido-4-methoxy-2-methyl-4-oxobutan-2-yl)disulfannecarbonyl)(methyl)amino)propan-1-aminium]", "values": [{"measurement": "Hydropersulfide Yield (%)", "setting": "[1]", "result": "82 ± 1", "unit": "%"}, {"measurement": "Byproduct % (yield of cyclic urea 2a-d)", "setting": "[2]", "result": "5.9 ± 0.4", "unit": "%"}, {"measurement": "COS release (m/z=60 signal)", "setting": "[3]", "result": "produce mainly COS"}]}, {"smiles": "CNCCN(C)C(=O)SSCC(NC(C)=O)C(=O)OC", "note": "(stereo not shown) [Precursor 1a, 2-(((2-Acetamido-3-methoxy-3-oxopropyl)disulfannecarbonyl)(methyl)amino)-N-methylethan-1-aminium]", "values": [{"measurement": "yield of byproduct 2a", "setting": "[4]; NEM 50 equiv., pH 7.4 buffer", "result": 74, "unit": "%"}, {"measurement": "yield of cyclic urea byproduct", "setting": "[4]; precursor 10 μM, HPE-IAM 500 μM (50 equiv.), pH 7.4 ammonium bicarbonate buffer, 37° C.", "result": 52, "unit": "%"}, {"measurement": "byproduct 2a formation", "setting": "[4]; precursor 10 μM, NEM 500 μM, pH 7.4 ammonium bicarbonate buffer, 37° C., 15 min", "result": "7.4 ± 0.2", "unit": "µM"}]}]}
